Measurements reported in US20090148886A1, “METHODS OF IDENTIFYING COMPOUNDS THAT DECREASE INTRAOCULAR PRESSURE” (The Arizona Board of Regents on behalf of the University of …, priority 2007, published 2009).

System: C57BL/6 mice and Best2^+/+, Best2^+/−, Best2^−/− littermates
Experiment: IOP measurement by cannulation of the anterior chamber in control and drug-treated Best2 mice
Type: in vivo, mouse
Conditions: for Mean IOP: 10 μL of solution topically to each eye 2 hours before cannulation, mean ± SE
Experimental: IOP Measurements: IOP was measured in the mice by cannulation of the anterior chamber with Avertin® anesthesia (300 mg/kg injected intraperitoneally) as described in, e.g., Husain et al., Exp. Eye Res. 83:1453-1458, 2006; John et al., Invest. Ophthalmol. Vis. Sci. 38:249-253, 1997; Aihara et al., Invest. Ophthalmol. Vis. Sci. 44:5168-5173, 2003. In brief, the anterior chamber was cannulated with a borosilicate glass microneedle (1-mm outer diameter with a 50-μm inner diameter tip, beveled to 45°; Humagen, Charlottesville, Va.) filled with Hanks' balanced salt solution (HBSS) and connected to a pressure transducer (BLPR; World Precision Instruments, Sarasota, Fla.). The signal was amplified (Bridge8 amplifier; World Precision Instruments), converted from analog to digital (iWorx® model 108 converter; CB Sciences, Dover, N.H.), and recorded (LabScribe software ver. 1.6; CB Sciences, Dover, N.H.). IOP was recorded for a period of >90 seconds, and the IOP value determined from the average of each recording. […] All measurements were performed between 2 and 6 PM to avoid diurnal pressure variations. The apparatus was calibrated using a fluid reservoir the height of which could be adjusted to generate a series of known pressures. For experiments using timolol (0.5% solution; Bausch & Lomb, Tampa, Fla.) or brinzolamide (Azopt® 1% solution; Alcon, Fort Worth, Tex.), 10 μL of solution was administrated topically to each eye 2 hours before cannulation.

Row | Compound | IOP after treatment compared with treated C57BL/6 or Best2^+/+ mice (Best2^+/+ (so in the source) and Best2^−/− mice, lower than in C57BL/6 or Best2^+/+ mice) | Mean IOP (Best2^+/+ mice) | Mean IOP (Best2^+/− mice) | Mean IOP (Best2^−/− mice) | Mean IOP (C57BL/6 mice) | Effect on IOP (in words) (all mice tested) | Effect on IOP (in words) (Best2^−/− mice) | Effect on IOP (in words) (C57BL/6 and Best2^+/+ mice, P<0.005)
1 | CCN[C@H]1CN(CCCOC)S(=O)(=O)c2sc(S(N)(=O)=O)cc21 [Brinzolamide, brinzolamide] | approximately 1 mm Hg | 10.08 ± 0.33 mm Hg | 9.56 ± 0.37 mm Hg | 9.34 ± 0.34 mm Hg | 10.51 ± 0.51 mm Hg | effective in lowering IOP in all mice tested | – | –
2 | CC(C)(C)NC[C@H](O)COc1nsnc1N1CCOCC1 [Timolol, timolol] | – | 9.57 ± 0.22 mm Hg | 9.48 ± 0.12 mm Hg | 9.49 ± 0.18 mm Hg | 10.53 ± 0.29 mm Hg | – | less effective in lowering IOP | lowered IOP significantly
